Experimental data as given in ChEMBL document CHEMBL4330074, “Discovery of potent azaindazole leucine-rich repeat kinase 2 (LRRK2) inhibitors possessing a key intramolecular hydrogen bond - Part 2” (Bioorg Med Chem Lett, 2019).

What was measured:
[1] = molecular target: T1, Leucine-rich repeat serine/threonine-protein kinase 2 (Homo sapiens, UniProt Q5S007, G2019S); test: Inhibition of recombinant human GST-tagged LRRK2 G2019S mutant catalytic domain (970 to 2527 residues) expressed in insect cells using RtGWWRFYTLRRARQGNTKQR as substrate measured after 180 mins in presence of [gamma33P]ATP by topcount method
[2] = molecular target: T1, Leucine-rich repeat serine/threonine-protein kinase 2; test: Inhibition of LRRK2 G2019S mutant (unknown origin) by cell based assay
P-gp (human MDR1) = test: Efflux ratio of permeability from basolateral to apical side over apical to basolateral side in MDCK-MDR1 cells harboring human P-gp at 5 uM; format: ADME, cell-based, Canis lupus familiaris; conditions: dog
[3] = Clearance in rat at 0.5 mg/kg, iv; format: ADME, organism-based; conditions: in vivo
[4] = Clearance in rat at 0.5 to 1 mg/kg, iv; format: ADME, organism-based; conditions: in vivo
Homo sapiens = species: Homo sapiens; test: Selectivity ratio of Ki for JAK2 (unknown origin) to Ki for recombinant human GST-tagged LRRK2 G2019S mutant catalytic domain (970 to 2527 residues) expressed in insect cells
[5] = molecular target: Maternal embryonic leucine zipper kinase (Homo sapiens) (UniProt Q14680); test: Inhibition of MELK (unknown origin) at 1 uM relative to control
[6] = molecular target: T2, Dual specificity protein kinase TTK (Homo sapiens) (UniProt P33981); test: Inhibition of TTK (unknown origin) at 1 uM relative to control
T2 sequence (whole entry): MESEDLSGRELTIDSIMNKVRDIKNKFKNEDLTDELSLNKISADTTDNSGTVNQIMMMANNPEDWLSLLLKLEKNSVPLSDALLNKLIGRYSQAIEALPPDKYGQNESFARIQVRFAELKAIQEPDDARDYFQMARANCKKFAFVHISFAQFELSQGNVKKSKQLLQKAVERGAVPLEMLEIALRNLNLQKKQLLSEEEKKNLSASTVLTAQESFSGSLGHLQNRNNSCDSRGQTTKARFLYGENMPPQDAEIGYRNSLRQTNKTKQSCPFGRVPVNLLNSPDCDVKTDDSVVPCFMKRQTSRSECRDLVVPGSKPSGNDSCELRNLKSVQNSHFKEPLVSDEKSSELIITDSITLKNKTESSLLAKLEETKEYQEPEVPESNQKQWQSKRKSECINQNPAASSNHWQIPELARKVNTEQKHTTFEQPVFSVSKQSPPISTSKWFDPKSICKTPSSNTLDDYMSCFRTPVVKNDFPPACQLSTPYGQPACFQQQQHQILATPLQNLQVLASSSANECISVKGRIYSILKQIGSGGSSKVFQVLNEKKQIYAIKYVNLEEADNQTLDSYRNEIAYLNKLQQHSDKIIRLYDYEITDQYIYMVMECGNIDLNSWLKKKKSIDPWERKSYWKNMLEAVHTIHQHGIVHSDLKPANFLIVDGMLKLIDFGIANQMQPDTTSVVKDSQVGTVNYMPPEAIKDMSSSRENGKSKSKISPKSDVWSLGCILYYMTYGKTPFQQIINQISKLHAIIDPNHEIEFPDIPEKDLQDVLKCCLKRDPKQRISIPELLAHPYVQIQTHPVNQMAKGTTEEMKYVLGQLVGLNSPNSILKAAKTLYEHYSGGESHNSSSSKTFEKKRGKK

[7] = molecular target: Serine/threonine-protein kinase 26 (Homo sapiens) (UniProt Q9P289); test: Inhibition of MST4 (unknown origin) at 1 uM relative to control
TAK1/TAB1 (Homo sapiens) = TAK1/TAB1 (Homo sapiens) (UniProt Q15750+O43318); test: Inhibition of TAK1/TAB1 (unknown origin) at 1 uM relative to control; format: protein-complex assay
[8] = Oral bioavailability in rat at 1 mg/kg; format: ADME, organism-based; conditions: in vivo
[9] = Ratio of AUC in rat brain to plasma at 0.5 mg/kg, iv; format: ADME, organism-based; conditions: brain and plasma, read-out: Ratio AUC
[10] = Ratio of fAUC in rat brain to plasma at 0.5 mg/kg, iv; format: ADME, organism-based; conditions: brain and plasma

T1 sequence (Q5S007 whole entry G2019S, the tested form may be a part): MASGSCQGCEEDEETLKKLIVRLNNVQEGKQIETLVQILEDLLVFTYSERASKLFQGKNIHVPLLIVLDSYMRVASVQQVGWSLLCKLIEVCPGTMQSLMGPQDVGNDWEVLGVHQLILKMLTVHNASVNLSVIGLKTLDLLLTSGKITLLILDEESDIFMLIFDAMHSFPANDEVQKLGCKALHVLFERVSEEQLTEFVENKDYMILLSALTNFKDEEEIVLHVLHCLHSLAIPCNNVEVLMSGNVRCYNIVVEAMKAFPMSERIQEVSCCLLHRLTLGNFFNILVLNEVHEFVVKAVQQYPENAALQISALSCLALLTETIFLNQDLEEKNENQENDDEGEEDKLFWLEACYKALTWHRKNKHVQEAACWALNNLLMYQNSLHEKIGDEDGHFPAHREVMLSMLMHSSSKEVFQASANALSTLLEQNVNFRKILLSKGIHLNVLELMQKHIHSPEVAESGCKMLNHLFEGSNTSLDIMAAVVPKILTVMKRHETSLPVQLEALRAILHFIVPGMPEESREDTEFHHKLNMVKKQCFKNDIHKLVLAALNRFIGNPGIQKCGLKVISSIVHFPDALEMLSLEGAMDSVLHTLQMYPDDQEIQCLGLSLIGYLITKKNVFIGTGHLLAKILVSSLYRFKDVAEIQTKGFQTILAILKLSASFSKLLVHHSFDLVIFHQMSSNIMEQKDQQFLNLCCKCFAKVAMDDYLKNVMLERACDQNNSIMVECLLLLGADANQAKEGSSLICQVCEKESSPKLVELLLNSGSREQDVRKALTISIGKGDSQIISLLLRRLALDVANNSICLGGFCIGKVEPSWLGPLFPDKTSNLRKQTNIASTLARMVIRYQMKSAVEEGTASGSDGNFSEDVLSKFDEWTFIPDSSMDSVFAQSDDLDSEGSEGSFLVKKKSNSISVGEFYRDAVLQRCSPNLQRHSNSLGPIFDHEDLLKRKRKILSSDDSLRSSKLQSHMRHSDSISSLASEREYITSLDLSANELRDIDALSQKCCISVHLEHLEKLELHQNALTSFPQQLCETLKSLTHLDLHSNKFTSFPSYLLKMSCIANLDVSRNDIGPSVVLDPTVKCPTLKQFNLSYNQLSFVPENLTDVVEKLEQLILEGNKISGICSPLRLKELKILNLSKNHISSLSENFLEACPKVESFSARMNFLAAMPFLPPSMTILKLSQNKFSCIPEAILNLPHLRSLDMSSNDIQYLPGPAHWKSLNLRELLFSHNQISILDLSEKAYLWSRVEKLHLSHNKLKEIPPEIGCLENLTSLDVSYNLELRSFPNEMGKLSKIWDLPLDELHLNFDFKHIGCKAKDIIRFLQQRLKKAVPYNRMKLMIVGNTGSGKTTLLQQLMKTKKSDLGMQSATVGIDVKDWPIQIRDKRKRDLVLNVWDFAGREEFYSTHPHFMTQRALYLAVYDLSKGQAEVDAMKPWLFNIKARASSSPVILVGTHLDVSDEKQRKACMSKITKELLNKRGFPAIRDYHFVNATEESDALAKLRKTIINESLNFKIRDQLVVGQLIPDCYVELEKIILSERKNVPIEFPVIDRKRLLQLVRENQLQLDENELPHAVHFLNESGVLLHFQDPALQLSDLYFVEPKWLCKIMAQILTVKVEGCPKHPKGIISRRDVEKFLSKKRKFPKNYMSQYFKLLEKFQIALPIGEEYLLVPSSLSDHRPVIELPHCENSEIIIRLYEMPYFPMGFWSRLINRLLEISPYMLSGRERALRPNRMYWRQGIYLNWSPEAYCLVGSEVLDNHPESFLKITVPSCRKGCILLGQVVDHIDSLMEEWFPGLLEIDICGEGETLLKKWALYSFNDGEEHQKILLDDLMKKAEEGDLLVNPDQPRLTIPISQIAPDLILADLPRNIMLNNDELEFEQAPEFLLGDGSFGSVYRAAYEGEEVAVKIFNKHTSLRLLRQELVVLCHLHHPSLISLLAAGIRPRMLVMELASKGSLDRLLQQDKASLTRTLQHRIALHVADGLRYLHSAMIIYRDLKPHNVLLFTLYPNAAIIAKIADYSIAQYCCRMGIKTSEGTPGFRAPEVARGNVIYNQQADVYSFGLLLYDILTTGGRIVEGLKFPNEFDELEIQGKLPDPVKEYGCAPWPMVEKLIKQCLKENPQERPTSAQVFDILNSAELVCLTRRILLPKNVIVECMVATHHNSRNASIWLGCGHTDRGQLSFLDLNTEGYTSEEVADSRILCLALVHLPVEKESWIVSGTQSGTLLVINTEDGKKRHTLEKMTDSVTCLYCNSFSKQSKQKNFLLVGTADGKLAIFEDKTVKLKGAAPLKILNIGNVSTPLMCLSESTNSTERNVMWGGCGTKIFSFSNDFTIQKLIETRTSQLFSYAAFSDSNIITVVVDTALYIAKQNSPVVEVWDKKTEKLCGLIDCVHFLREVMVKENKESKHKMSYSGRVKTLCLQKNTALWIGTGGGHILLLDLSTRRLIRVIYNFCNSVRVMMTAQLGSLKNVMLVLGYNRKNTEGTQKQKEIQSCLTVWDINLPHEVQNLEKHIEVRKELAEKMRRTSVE
Chain of Maternal embryonic leucine zipper kinase (Homo sapiens) (Q14680 whole entry, looked up): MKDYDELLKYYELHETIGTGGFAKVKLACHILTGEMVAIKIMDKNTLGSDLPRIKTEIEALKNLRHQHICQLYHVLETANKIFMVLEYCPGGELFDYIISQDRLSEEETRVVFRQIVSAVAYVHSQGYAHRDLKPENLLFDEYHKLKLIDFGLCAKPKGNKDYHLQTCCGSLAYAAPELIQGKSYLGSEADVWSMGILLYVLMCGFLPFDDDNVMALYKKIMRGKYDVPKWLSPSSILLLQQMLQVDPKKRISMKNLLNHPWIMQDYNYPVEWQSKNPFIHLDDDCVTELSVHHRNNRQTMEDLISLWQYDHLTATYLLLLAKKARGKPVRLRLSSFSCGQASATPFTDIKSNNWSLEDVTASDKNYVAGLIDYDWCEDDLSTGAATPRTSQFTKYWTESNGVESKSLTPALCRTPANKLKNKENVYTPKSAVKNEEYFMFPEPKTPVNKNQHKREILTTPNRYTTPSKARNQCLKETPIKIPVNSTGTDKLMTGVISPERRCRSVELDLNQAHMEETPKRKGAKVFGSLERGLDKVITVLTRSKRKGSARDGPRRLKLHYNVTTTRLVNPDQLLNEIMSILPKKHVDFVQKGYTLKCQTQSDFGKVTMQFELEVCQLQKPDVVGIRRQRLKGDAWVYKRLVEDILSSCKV
Chain of Serine/threonine-protein kinase 26 (Homo sapiens) (Q9P289 2-416 limits assumed): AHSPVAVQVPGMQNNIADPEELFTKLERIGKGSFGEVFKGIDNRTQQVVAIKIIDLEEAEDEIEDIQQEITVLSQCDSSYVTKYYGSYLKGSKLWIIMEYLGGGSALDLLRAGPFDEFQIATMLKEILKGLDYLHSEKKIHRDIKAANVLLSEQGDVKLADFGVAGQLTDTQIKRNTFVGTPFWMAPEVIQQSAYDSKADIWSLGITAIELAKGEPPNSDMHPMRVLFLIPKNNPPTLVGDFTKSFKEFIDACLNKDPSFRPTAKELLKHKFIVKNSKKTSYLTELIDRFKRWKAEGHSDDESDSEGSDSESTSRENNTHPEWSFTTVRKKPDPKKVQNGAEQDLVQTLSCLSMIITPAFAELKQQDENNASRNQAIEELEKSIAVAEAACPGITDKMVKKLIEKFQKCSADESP

SMILES	Ki [1]	IC50 [2]	efflux ratio at 5 µM (P-gp (human MDR1))	further results
c1ccc(-c2n[nH]c3ccnc(NC4CCOCC4)c23)nc1	0.0031 µM	0.041 µM	3.6	clearance [3]: 22 mL/min/kg
CC(C)c1nc(-c2n[nH]c3ccnc(NC4CCOCC4)c23)n[nH]1	0.0078 µM	0.035 µM	21	clearance [3]: 35 mL/min/kg
Cc1n[nH]c2ccnc(NC3CCOCC3)c12	0.182 µM	0.426 µM	1.1	clearance [4]: 25 mL/min/kg
CC(C)c1n[nH]c(-c2n[nH]c3ccnc(OC4CCOCC4)c23)n1	4.6 µM	–	–	–
CC(C)n1cc(-c2n[nH]c3ccnc(NC4CCOCC4)c23)nn1	0.0012 µM	0.049 µM	23	–
c1cc(-c2n[nH]c3ccnc(OC4CCOCC4)c23)cc(N2CCOCC2)n1	0.0042 µM	0.024 µM	3.4	clearance [4]: 69 mL/min/kg; Ratio Ki (Homo sapiens): 882; inhibition [5]: 60%; inhibition [6]: 86%
CC(C)Nc1nccc2[nH]nc(-c3nnc(C4CC4)n3C)c12	0.151 µM	–	–	–
Cc1n[nH]c2ccnc(OC3CCOCC3)c12	0.044 µM	0.301 µM	0.9	clearance [4]: 34 mL/min/kg; Ratio Ki (Homo sapiens): 20
FC(F)(F)c1cc(-c2n[nH]c3ccnc(NC4CCOCC4)c23)ncn1	0.0041 µM	0.024 µM	1.4	Ratio Ki (Homo sapiens): 1000; inhibition [6]: 52%; clearance [3]: 18 mL/min/kg; inhibition [7]: 59%; inhibition (TAK1/TAB1 (Homo sapiens)): 51%; bioavailability [8]: 62%; Kp [9]: 1; Kp uu [10]: 0.22
Cc1[nH]nc2ccnc(NC3CCOCC3)c12	–	–	–	Ratio Ki (Homo sapiens): 20
c1cc(-c2n[nH]c3ccnc(OC4CCOCC4)c23)[nH]n1	0.044 µM	–	–	–
CCc1cc(-c2n[nH]c3ccnc(NC4CCOCC4)c23)n(C)n1	3.9 µM	–	11	–
c1cc(-c2n[nH]c3ccnc(OC4CCOCC4)c23)nc(N2CCOCC2)c1	0.147 µM	–	–	–
CC(C)(O)Cn1cc(-c2n[nH]c3ccnc(OC4CCOCC4)c23)cn1	0.021 µM	0.013 µM	80	clearance [3]: 30 mL/min/kg
CCc1cc(-c2n[nH]c3ccnc(NC(C)C)c23)nn1C	0.0035 µM	–	4	–
CCc1cc(-c2n[nH]c3ccnc(NC4CCOCC4)c23)nn1C	0.0005 µM	0.0045 µM	10	–
c1cc(-c2n[nH]c3ccnc(NC4CCOCC4)c23)cc(N2CCOCC2)n1	–	0.135 µM	1.5	clearance [4]: 117 mL/min/kg
